Measurements reported in ChEMBL document CHEMBL5214958, “Discovery of novel compounds as potent activators of Sirt3” (Bioorg Med Chem, 2022).

Legend:
[1] = biological target: T1, NAD-dependent protein deacetylase sirtuin-3, mitochondrial (Homo sapiens) (UniProt Q9NTG7); assay: (§1) Modulation of human Sirt3 (118 to 399 residues) deacetylation activity under non-steady state assessed as substrate deacetylation at low enzyme concentration with [E]0/[NAD+]0 ratio of 0.3 at 10 uM incubated for 2 mins using MnSOD peptide as substrate in presence of NAD+ by HPLC-assay relative to control; details: filed as modulator
T1 sequence (whole entry): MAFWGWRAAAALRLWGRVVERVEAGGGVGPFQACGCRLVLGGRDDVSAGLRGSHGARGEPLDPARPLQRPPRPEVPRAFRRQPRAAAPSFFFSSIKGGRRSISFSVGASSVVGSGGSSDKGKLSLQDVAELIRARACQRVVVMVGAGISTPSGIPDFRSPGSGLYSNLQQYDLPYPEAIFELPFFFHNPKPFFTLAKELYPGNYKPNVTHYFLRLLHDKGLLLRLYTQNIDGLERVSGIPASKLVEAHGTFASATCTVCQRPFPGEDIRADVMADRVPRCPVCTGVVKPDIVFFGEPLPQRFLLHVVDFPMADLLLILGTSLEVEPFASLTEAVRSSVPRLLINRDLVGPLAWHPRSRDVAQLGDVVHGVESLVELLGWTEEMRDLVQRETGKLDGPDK

[2] = biological target: T2, NAD-dependent protein deacetylase sirtuin-3, mitochondrial (Homo sapiens, UniProt Q9NTG7); assay: Binding affinity to human Sirt3 (118 to 399 residues) assessed as dissociation constant of ternary complex using acetylated MnSOD peptide as substrate in presence of OAADPr by short DNA nano levers based switchSENSE microfluid bio-chip analysis
T2 sequence (Q9NTG7 whole entry): T1 sequence (whole entry)

[3] = biological target: T2, NAD-dependent protein deacetylase sirtuin-3, mitochondrial; assay: Modulation of human Sirt3 (118 to 399 residues) deacetylation activity under non-steady state assessed as substrate deacetylation at low enzyme concentration with [E]0/[NAD+]0 ratio of 0.1 incubated for 5 mins using MnSOD peptide as substrate in presence of NAD+ by HPLC-assay relative to control
[4] = biological target: T2, NAD-dependent protein deacetylase sirtuin-3, mitochondrial; assay: Binding affinity to human Sirt3 (118 to 399 residues) assessed as dissociation constant (Koff) by short DNA nano levers based switchSENSE microfluid bio-chip analysis
[5] = biological target: T2, NAD-dependent protein deacetylase sirtuin-3, mitochondrial; assay: Binding affinity to human Sirt3 (118 to 399 residues) assessed as dissociation constant (Koff) of ternary complex using acetylated MnSOD peptide as substrate in presence of OAADPr by short DNA nano levers based switchSENSE microfluid bio-chip analysis
[6] = biological target: T1, NAD-dependent protein deacetylase sirtuin-3, mitochondrial (Homo sapiens); assay: as §1, with “high” for “low”, “0.6” for “0.3”; details: filed as modulator
[7] = biological target: T1, NAD-dependent protein deacetylase sirtuin-3, mitochondrial (Homo sapiens); assay: as §1, with “0.1” for “0.3”; details: filed as modulator
[8] = biological target: T2, NAD-dependent protein deacetylase sirtuin-3, mitochondrial; assay: Binding affinity to human Sirt3 (118 to 399 residues) assessed as dissociation constant of ternary complex using acetylated MnSOD peptide as substrate in presence of OAADPr by microscale thermophoresis analysis
[9] = biological target: T2, NAD-dependent protein deacetylase sirtuin-3, mitochondrial; assay: Binding affinity to human Sirt3 (118 to 399 residues) assessed as dissociation constant using acetylated MnSOD peptide as substrate by microscale thermophoresis analysis
[10] = biological target: T2, NAD-dependent protein deacetylase sirtuin-3, mitochondrial; assay: Binding affinity to human Sirt3 (118 to 399 residues) assessed as dissociation constant using 625nM acetylated MnSOD peptide as substrate by microscale thermophoresis analysis
[11] = biological target: T2, NAD-dependent protein deacetylase sirtuin-3, mitochondrial; assay: Binding affinity to human Sirt3 (118 to 399 residues) assessed as dissociation constant using acetylated MnSOD peptide as substrate in presence of honokiol by microscale thermophoresis analysis

## CCCCNC(=O)[C@@H](Cc1ccc(Cl)cc1)NC(=O)CSC(=S)c1ccccc1
[1]
  Activity: 100%

## CCCCNC(=O)COc1ccc2c(c1)CCc1ccccc1C2NC(=O)CCCOc1cc([N+](=O)[O-])c(C(C)O)cc1OC (stereo not given)
[2]
  Kd: 12.6 µM
[3]
  EC50: < 5 µM
[4]
  Kd: 0.22 s⁻¹
[5]
  Kd: 0.162 s⁻¹

## C=C(CC)C(=O)c1ccc(OCC(=O)N[C@H](Cc2ccc(Cl)cc2)C(=O)NCCCC)c(Cl)c1Cl
[6]
  Activity: 107%
[1]
  Activity: 104%

## Cc1ccc(-c2nc3n(n2)C(=O)CC(c2cccc4ccccc24)S3)cc1 (stereo not given)
[6]
  Activity: 127%
[7]
  Activity: 114%

## C=CCc1ccc(O)c(-c2ccc(O)c(CC=C)c2)c1 [HONOKIOL]
[8]
  Kd: 0.29 µM
[9]
  Kd: 0.97 µM
[10]
  Kd: 2.99 µM
[1]
  Activity: 108%

## NC(=O)c1ccc[n+]([C@@H]2C[C@H](COP(=O)(O)OP(=O)(O)OC[C@H]3O[C@@H](n4cnc5c(N)ncnc54)[C@H](O)[C@@H]3O)[C@@H](O)[C@H]2O)c1
[9]
  Kd: 7.3 µM
[11]
  Kd: 6.6 µM
